According to ChEMBL document CHEMBL4613277, “Improving the Potency of N-Aryl-2,5-dimethylpyrroles against Multidrug-Resistant and Intracellular Mycobacteria” (ACS Med Chem Lett, 2020):
≈ marks a conversion by molar mass, not a printed value. Calls of active or inactive are those of the source. The rule behind the calls is not given here.

Tests used:
[1] = Selectivity index, ratio of GI50 for mouse Macrophage cells to MIC for Mycobacterium tuberculosis H37Rv; assay type: toxicity
[2] = Cytotoxicity against mouse macrophage cells assessed as growth inhibition incubated for 48 hrs by resazurin based assay; assay type: cell-based
[3] = system: Mycobacterium tuberculosis; assay: Antimycobacterial activity against Mycobacterium tuberculosis H37Rv assessed as reduction in bacterial growth incubated for 7 days by resazurin based assay; assay type: functional; conditions: 168 h
[4] = Acute toxicity in Galleria mellonella wax moth larve assessed as mortality by measuring melanization at 12 mg/kg observed for 5 days; assay type: organism-based; conditions: in vivo, 120 h
[5] = Acute toxicity in Galleria mellonella wax moth larve assessed as adverse effect at 12 mg/kg observed for 5 days; assay type: organism-based; conditions: in vivo, 120 h
[6] = system: Mycobacterium tuberculosis; assay: Bacteriostatic activity against Mycobacterium tuberculosis H37Rv assessed as reduction in bacterial growth at 0.32 ug/ml incubated for 3 to 4 weeks by time kill assay; assay type: functional, organism-based
[7] = system: Mycobacterium tuberculosis; assay: Antimycobacterial activity against Mycobacterium tuberculosis H37Rv infected in mouse J774.1 cells assessed as reduction in bacterial colony at 1 to 10 times MIC incubated for 72 hrs by colony counting method; assay type: functional, organism-based
[8] = system: Mycolicibacterium aurum; assay: Antimycobacterial activity against Mycobacterium aurum assessed as reduction in bacterial growth incubated for 48 hrs by HT-SPOTi assay; assay type: functional
[9] = system: Mycolicibacterium aurum; assay: Antimycobacterial activity against Mycobacterium aurum infected in mouse RAW264.7 cells assessed as reduction in bacterial growth incubated for 48 hrs by HT-SPOTi assay; assay type: functional
[10] = system: Mycobacterium tuberculosis; assay: Bacteriostatic activity against Mycobacterium tuberculosis H37Rv assessed as reduction in bacterial growth at 0.07 ug/ml incubated for 3 to 4 weeks by time kill assay; assay type: functional, organism-based
[11] = system: Mycobacterium tuberculosis; assay: Bactericidal activity against Mycobacterium tuberculosis H37Rv assessed as reduction in bacterial growth at 0.35 ug/ml incubated for 3 to 4 weeks by time kill assay; assay type: functional, organism-based

Q: For `Cc1cc(CNC2CCCCC2)c(C)n1-c1ccc(C(C)C)cc1`, which selectivity ratio [1] is on record?
A: Its selectivity ratio is 23 to 48.

Q: What about the GI50 at 48 h [2] of the same compound?
A: Its GI50 at 48 h is 5.8 µg/mL (≈ 17.9 µM).

Q: What about the MIC [3] of the same compound?
A: The MIC was 0.12 to 0.25 µg/mL (≈ 0.37 to 0.77 µM).

Q: Which MIC [3] does the source give for `Clc1ccc(-n2cc(CNC3CCCCC3)nn2)cc1` here?
A: Its MIC is over 25 µg/mL.

Q: Which MIC [3] does the source give for `Cc1nn(-c2ccc(Cl)cc2)c(C)c1CNCc1ccccc1` here?
A: The MIC was over 25 µg/mL.

Q: For `Clc1ccc2nc(CNCc3ccccc3)cn2c1`, which MIC [3] is on record?
A: Its MIC is over 25 µg/mL.

Q: What does the source list for `Cc1cc(CNCC2CCCCC2)c(C)n1-c1ccc(Cl)cc1`?
A: Activity [4]: Non-Toxic; Activity [5]: Non-Toxic; selectivity ratio [1]: 39 to 195; GI50 at 48 h [2]: 11.7 µg/mL (≈ 35.4 µM); MIC [3]: 0.06 to 0.3 µg/mL (≈ 0.181 to 0.907 µM); Activity [6]: Active; inhibition [7]: Active; MIC [8]: 3.9 µg/mL (≈ 11.8 µM); MIC [9]: 1.95 µg/mL (≈ 5.89 µM)

Q: For `Cc1nn(-c2ccc(Cl)cc2)c(C)c1CNC1CCCCC1`, which MIC [3] is on record?
A: The MIC was over 25 µg/mL.

Q: With `Clc1ccc2nc(CNC3CCCCC3)cn2c1` as the compound, how does the MIC [3] read?
A: Its MIC is over 25 µg/mL.

Q: With `COc1c(N2C[C@@H]3CCCN[C@@H]3C2)c(F)cc2c(=O)c(C(=O)O)cn(C3CC3)c12` as the compound, how does the Activity [10] read?
A: The Activity was “inactive”.

Q: What about the Activity [11] of the same compound?
A: Its Activity is “Active”.

Q: And the inhibition [7]?
A: The inhibition was “Active”.

Q: What does the source list for `COc1ccc(-n2c(C)cc(CNC3CCCCC3)c2C)cc1`?
A: selectivity ratio [1]: 16 to 32; GI50 at 48 h [2]: 3.9 µg/mL (≈ 12.5 µM); MIC [3]: 0.12 to 0.25 µg/mL (≈ 0.384 to 0.8 µM)

Q: With `NNC(=O)c1ccncc1` [ISONIAZID] as the compound, how does the MIC [3] read?
A: Its MIC is 0.24 µg/mL (≈ 1.75 µM).

Q: And the inhibition [7]?
A: Its inhibition is “Active”.

Q: For `Clc1ccc(-n2cc(CNCc3ccccc3)nn2)cc1`, which MIC [3] is on record?
A: Its MIC is over 25 µg/mL.

Q: With `CO[C@H]1/C=C/O[C@@]2(C)Oc3c(C)c(O)c4c(O)c(c(/C=N/N5CCN(C)CC5)c(O)c4c3C2=O)NC(=O)/C(C)=C\C=C\[C@H](C)[C@H](O)[C@@H](C)[C@@H](O)[C@@H](C)[C@H](OC(C)=O)[C@@H]1C` [RIFAMPIN] as the compound, how does the MIC [3] read?
A: Its MIC is over 0.06 µg/mL.

Q: With `Cc1nn(-c2ccccc2)c(C)c1CNC1CCCCC1` as the compound, how does the MIC [3] read?
A: Its MIC is over 25 µg/mL.

Q: For `Cc1cc(CN[C@H]2C[C@@H]3CC[C@H]2C3)c(C)n1-c1ccc(Cl)cc1`, which selectivity ratio [1] is on record?
A: The selectivity ratio was 47 to 94.

Q: And the GI50 at 48 h [2]?
A: The GI50 at 48 h was 23.4 µg/mL (≈ 71.1 µM).

Q: And the MIC [3]?
A: The MIC was 0.25 to 0.5 µg/mL (≈ 0.76 to 1.52 µM).
